Test results published in US20220380341A1, “INHIBITORS OF HIV-1 NEF FOR THE TREATMENT OF HIV DISEASE” (priority 2018, published 2022).
pIC50, pKd: −log10 of the molar value. Like-named read-outs stand apart in the source and are kept apart here.

What was measured:
[1] = target: T1, HIV-1 Nef SF2 (Human immunodeficiency virus type 1 group M subtype B, UniProt P03407); experiment: biochemical; assay type: binding; settings: two-step induced-fit model, Reichert SPR, read-out: Reichert SPR Nef SF2 (M) two-step fitting
T1 construct: made in house

[2] = target: Nef from SIV (strain mac239) (Simian immunodeficiency virus, UniProt Q5QGG3); experiment: biochemical
[3] = test system: TZM-bl cell line; assay type: cell-based; settings: human, 1 μM
In short: (§1)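 Read-out is luciferase from an integrated HIV-1 LTR reporter in TZM-bl cells, 48 h after HIV-1NL4-3 infection in the presence of 1 μM compound. Scale set by DMSO-treated wild-type-infected cells (0%) and Nef-defective virus (100% Nef-dependent effect). Cell Titer Blue measures cytotoxicity without virus.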

[4] = target: HIV-1 NefNL4-3 (Human immunodeficiency virus type 1 group M subtype B, UniProt P03406, A33V/T15A/T51N/V11I); experiment: Surface plasmon resonance binding to recombinant full-length Nef (NL4-3); settings: for Kd: Reichert SPR Nef NL43 (M) two-step fitting, two-step induced-fit model, Reichert SPR, Table 3; for T, minutes (residence time): 2-step induced fit, T = 1/koff2; for RU30/RUNef (extent of binding): response units at 30 μM relative to Nef immobilized on the SPR chip
[5] = test system: HIV-1NL4-3; experiment: HIV-1 infectivity assay in TZM-bl reporter cell line (LTR-luciferase, 48 h); assay type: cell-based; settings: Human immunodeficiency virus 1, TZM-bl
In short: as §1

[6] = test system: HIV-1 NL4-3; experiment: HIV-1 replication in normal donor PBMCs (p24 Gag AlphaLISA); assay type: cell-based; settings: Table 1, 4 days, words (Not active, Borderline) where no bound is given; for pIC50: Human immunodeficiency virus 1, NL43, PBMC, 96 h
Experimental: FIG. 4. Inhibition of HIV-1 replication by compounds disclosed herein in PBMCs. Donor PBMCs were infected with HIV-1 in the presence of inhibitor concentrations ranging from 1 to 1,000 nM or the DMSO carrier solvent as a negative control (0.1% DMSO final). Replication was assessed by p24 Gag AlphaLISA (Perkin Elmer) […]. Each donor was also infected with Nef-defective HIV-1 to establish the baseline for Nef-dependent enhancement of replication in each culture. Cytotoxicity was assessed in uninfected PBMCs over the same incubation period using the CellTiter-Blue assay (Promega). Data were fit by non-linear regression analysis (GraphPad Prism v.7.04) to determine the IC50 and CC50 values shown.
The tables also show data for HIV-1 Replication in normal donor peripheral blood mononuclear cells (PBMCs), which is assay is conducted as follows:
Non-HLA-typed buffy coats (Source: Pittsburgh Central Blood Bank, #E3755) are received and processed within 24 hours of blood donation. PBMCs are isolated via rocking for RBC separation following 1:1 dilution with PBS, followed by Ficoll gradient centrifugation. The lymphocyte fraction is removed and washed several times for a final concentration of ˜150-300×10^6 cells per donor. Cells are activated for 3 days with 1-5 μg/mL PHA (Sigma) and 50 U/mL IL-2. Cells are plated at 750,000 cells/ml and viability is checked at day 3 using the Cell Titer Blue assay (Promega). If cells are >90% viable, then they are infected with HIV-1 NL4-3, wild-type or Δ-Nef mutant (input typically 30-500 pg/mL p24 capsid equivalents) in the presence or absence of Nef inhibitor analogs. IL-2 is included in the media at the time of infection. After 4 days, cells are lysed with 1% Triton X-100 for 1.5 h, checked for viability via Cell Titer Blue, and frozen/stored at −20° C. HIV-1 replication is assessed with a high-sensitivity HIV-1 p24 AlphaLISA assay (Perkin Elmer) in ½-volume 96-well plates, using one-half of the recommended assay volumes for all reagents (including samples). Assays are read on the BioTek Cytation5 instrument; readout is in AlphaUnits and replication in p24 pg/mL is determined using an HIV-1 p24 capsid protein standard included in the Alpha kit.

[7] = KD, M, Table 4, SPR fit 2-step induced fit, KD = koff/kon × koff2/(koff2 + kon2)
[8] = Nef NL4-3 Binding, SPR 2-state fitting KD, Table 1, 2-step induced-fit model
[9] = read-out: Nef NL4-3 Binding, SPR 1:1 or 2-site fitting KD2, Table 1, 2-site fit, second component
[10] = 1.0 μM, TZM-bl reporter cell line, Table 4, read-out: % Infectivity Inhibition
[11] = 1 μM, TZM-bl, normalized: DMSO wild-type HIV-1 = 0%, Nef-defective HIV-1 = 100%, read-out: HIV-1 Infectivity % Inhibition norm. to Δ-Nef @ 1 μM
[12] = 48 h, Table 1, TZM-bl cells, 1 μM, 48 h, 100% = Nef-defective HIV-1, read-out: HIV-1 Infectivity % Inhibition Norm. to Δ-Nef @ 1 μM

Oc1c(CC2CCOCC2)c(-c2ccc(F)cc2)nn1-c1nc2ccccc2[nH]1 [Compound I-151, 1-(1H-1,3-benzodiazol-2-yl)-3-(4-fluorophenyl)-4-[(oxan-4-yl)methyl]-1H-pyrazol-5-ol]
Kd [1]: 3.5e-06 M | pKd [2]: 5.84 | % Cell Viability [3]: 83.0% | Percent Viability @ 1 μM (TZM-bl cells) [3]: 83.0% | pKd [4]: 6.27 | pKd [4, 7]: 5.20 | pKd [4, 8]: 5.25 | Kd ([4]; KD): 5.65e-06 M | T, minutes (residence time) ([4]; Table 4): 4.68E + 00 minutes | pKd [4, 9]: 4.33 | RU30/RUNef (extent of binding) [4]: 8.50E- 03 | inhibition at 1 µM [5, 10]: 100% | inhibition at 1 µM [5, 11]: 106% | inhibition at 1 µM [5, 12]: 106%

CC(C)OC(=O)N1CCC(c2nn(-c3nc4ccccc4[nH]3)c(O)c2CCC2CCOCC2)CC1 [Compound I-722, propan-2-yl 4-[1-(1H-1,3-benzodiazol-2-yl)-5-hydroxy-4-[2-(oxan-4-yl)ethyl]-1H-pyrazol-3-yl]piperidine-1-carboxylate]
Kd [1]: 1.28e-07 M | pKd [2]: 5.31 | Percent Viability @ 1 μM (TZM-bl cells) [3]: 86.8% | pKd [4]: 5.65 | pKd [4, 8]: 5.26 | Kd ([4]; KD): 5.49e-06 M | pKd [4, 9]: 5.14 | inhibition at 1 µM [5, 11]: 53.4% | inhibition at 1 µM [5, 12]: 53.4%

Oc1c(CCc2ccc(F)cc2)c(C2CC2)nn1-c1nc2cc(Cl)ccc2[nH]1 [Compound I-170, 1-(5-chloro-1H-1,3-benzodiazol-2-yl)-3-cyclopropyl-4-[2-(4-fluorophenyl)ethyl]-1H-pyrazol-5-ol]
Kd [1]: 4.9e-07 M | pKd [2]: 8.54 | % Cell Viability [3]: 98.8% | Percent Viability @ 1 μM (TZM-bl cells) [3]: 98.8% | pKd [4, 7]: 7.90 | pKd [4, 8]: 7.90 | Kd ([4]; KD): 1.25e-08 M | T, minutes (residence time) ([4]; Table 4): 8.01E + 02 minutes | pKd [4, 9]: 5.70 | RU30/RUNef (extent of binding) [4]: 2.34E- 02 | inhibition at 1 µM [5, 10]: 67.1% | inhibition at 1 µM [5, 11]: 67.1% | inhibition at 1 µM [5, 12]: 67.1%

CC(C)(O)C(=O)N1CCC(CCc2c(C3CC3)nn(-c3nc4cc(Cl)ccc4[nH]3)c2O)CC1 [Compound I-712, 1-(4-{2-[1-(5-chloro-1H-1,3-benzodiazol-2-yl)-3-cyclopropyl-5-hydroxy-1H-pyrazol-4-yl]ethyl}piperidin-1-yl)-2-hydroxy-2-methylpropan-1-one]
Kd [1]: 5.9e-09 M | pKd [2]: 8.66 | % Cell Viability [3]: 100% | Percent Viability @ 1 μM (TZM-bl cells) [3]: 104.4% | pKd [4]: 7.16 | pKd [4, 7]: 7.70 | pKd [4, 8]: 7.70 | Kd ([4]; KD): 1.99e-08 M | T, minutes (residence time) ([4]; Table 4): 7.54E + 02 minutes | pKd [4, 9]: 4.99 | RU30/RUNef (extent of binding) [4]: 1.07E- 02 | inhibition at 1 µM [5, 10]: 52.3% | inhibition at 1 µM [5, 11]: 52.6% | inhibition at 1 µM [5, 12]: 52.6%

Oc1c(CCc2ccc(F)cc2)c(C2CCC2)nn1-c1nc2ccccc2[nH]1 [Compound I-129, 1-(1H-1,3-benzodiazol-2-yl)-3-cyclobutyl-4-[2-(4-fluorophenyl)ethyl]-1H-pyrazol-5-ol]
pIC50 [6]: ≥ 8.00 | % Cell Viability [3]: 99.3% | Percent Viability @ 1 μM (TZM-bl cells) [3]: 99.3% | pKd [4]: 8.62 | pKd [4, 7]: 10.43 | pKd [4, 8]: 10.43 | T, minutes (residence time) ([4]; Table 4): 5.19E + 05 minutes | pKd [4, 9]: 4.77 | RU30/RUNef (extent of binding) [4]: 1.28E- 02 | inhibition at 1 µM [5, 10]: 60.9% | inhibition at 1 µM [5, 12]: 60.9%

CC(C)(C)OC(=O)N1CCC(CCc2c(-c3ccc(C(F)(F)F)cc3)nn(-c3nc4ccccc4[nH]3)c2O)CC1 [Compound I-204]
pIC50 [6]: ≥ 6.00 | % Cell Viability [3]: 95.1% | Percent Viability @ 1 μM (TZM-bl cells) [3]: 95.1% | pKd [4, 7]: 10.64 | pKd [4, 8]: 10.64 | pKd [4, 9]: 10.20 | inhibition at 1 µM [5, 10]: 5.8% | inhibition at 1 µM [5, 12]: 5.8%

Oc1c(CCc2ccc(F)cc2)c(-c2ccc(C(F)(F)F)cn2)nn1-c1nc2cc(F)ccc2[nH]1 [Compound I-167, 1-(5-fluoro-1H-1,3-benzodiazol-2-yl)-4-[2-(4-fluorophenyl)ethyl]-3-[5-(trifluoromethyl)pyridin-2-yl]-1H-pyrazol-5-ol]
HIV Replication PBMC IC50 vs. HIV NL4-3 [6]: Not active | % Cell Viability [3]: 81.2% | Percent Viability @ 1 μM (TZM-bl cells) [3]: 81.2% | pKd [4]: 6.52 | pKd [4, 7]: 8.69 | pKd [4, 8]: 8.69 | T, minutes (residence time) ([4]; Table 4): 5.05E + 03 minutes | pKd [4, 9]: 5.76 | RU30/RUNef (extent of binding) [4]: 1.11E- 02 | inhibition at 1 µM [5, 10]: 52.1% | inhibition at 1 µM [5, 12]: 52.1%

CC(=O)N1CCC(Cc2c(-c3ccc(C(F)(F)F)cc3)nn(-c3nc4ccccc4[nH]3)c2O)CC1 [Compound I-720, 1-(4-{[1-(1H-1,3-benzodiazol-2-yl)-5-hydroxy-3-[4-(trifluoromethyl)phenyl]-1H-pyrazol-4-yl]methyl}piperidin-1-yl)ethan-1-one]
pKd [2]: 7.66 | % Cell Viability [3]: 71.4% | Percent Viability @ 1 μM (TZM-bl cells) [3]: 71.4% | pKd [4]: 5.92 | pKd [4, 7]: 5.74 | pKd [4, 8]: 5.74 | Kd ([4]; KD): 1.81e-06 M | T, minutes (residence time) ([4]; Table 4): 1.32E + 00 minutes | RU30/RUNef (extent of binding) [4]: 2.80E- 03 | inhibition at 1 µM [5, 10]: 92.2% | inhibition at 1 µM [5, 11]: 92.2% | inhibition at 1 µM [5, 12]: 92.2%

Oc1c(CCc2ccc(F)cc2)c(-c2ccc3c(c2)OC(F)(F)O3)nn1-c1nc2ccccc2[nH]1 [Compound I-145, 1-(1H-1,3-benzodiazol-2-yl)-3-(2,2-difluoro-2H-1,3-benzodioxol-5-yl)-4-[2-(4-fluorophenyl)ethyl]-1H-pyrazol-5-ol]
HIV Replication PBMC IC50 vs. HIV NL4-3 [6]: Not active | % Cell Viability [3]: 98.2% | Percent Viability @ 1 μM (TZM-bl cells) [3]: 98.2% | RU30/RUNef (extent of binding) [4]: 4.38E- 03 | inhibition at 1 µM [5, 10]: 0% | inhibition at 1 µM [5, 12]: -11.7%
